Experimental data from paper PMC12390684 (Viruses, 2025).
Where “and” joins values, the source holds several entries; their conditions need not be identical. Identical values can stand only once. Like-named read-outs stand apart in the source and are kept apart here.

Tests used:
[1] = Cytotoxicity (CellTiter 96 AQueous); format: cell-based; conditions: human
HIV-1Laï = experiment: microbe, parasite or virus in culture; format: cell-based; conditions: for EC50: Human immunodeficiency virus 1, MAGI; for SI (CC50/EC50): selectivity index
[2] = target: IN-GCN2 interaction (6xHis-IN / GST-GCN2) (UniProt P04585+Q9P2K8); experiment: biochemical; format: binding, HIV-1 IN; human GCN2; conditions: for IC50: SAR study, fresh dilutions from powder, at least three independent experiments; for IN-GCN2 interaction (%): screen, single dose 100 µM, single replicate, residual AlphaLISA signal normalized to DMSO control
[3] = IC50, inhibition of IN-GCN2 interaction
[4] = 24 h, 24 h infection, read-out: EC50
[5] = P4 MAGI CCR5+ cells, 24 h, read-out: CC50

IN-GCN2 interaction (6xHis-IN / GST-GCN2), sequence (Q9P2K8 192-1024, other chains not shown): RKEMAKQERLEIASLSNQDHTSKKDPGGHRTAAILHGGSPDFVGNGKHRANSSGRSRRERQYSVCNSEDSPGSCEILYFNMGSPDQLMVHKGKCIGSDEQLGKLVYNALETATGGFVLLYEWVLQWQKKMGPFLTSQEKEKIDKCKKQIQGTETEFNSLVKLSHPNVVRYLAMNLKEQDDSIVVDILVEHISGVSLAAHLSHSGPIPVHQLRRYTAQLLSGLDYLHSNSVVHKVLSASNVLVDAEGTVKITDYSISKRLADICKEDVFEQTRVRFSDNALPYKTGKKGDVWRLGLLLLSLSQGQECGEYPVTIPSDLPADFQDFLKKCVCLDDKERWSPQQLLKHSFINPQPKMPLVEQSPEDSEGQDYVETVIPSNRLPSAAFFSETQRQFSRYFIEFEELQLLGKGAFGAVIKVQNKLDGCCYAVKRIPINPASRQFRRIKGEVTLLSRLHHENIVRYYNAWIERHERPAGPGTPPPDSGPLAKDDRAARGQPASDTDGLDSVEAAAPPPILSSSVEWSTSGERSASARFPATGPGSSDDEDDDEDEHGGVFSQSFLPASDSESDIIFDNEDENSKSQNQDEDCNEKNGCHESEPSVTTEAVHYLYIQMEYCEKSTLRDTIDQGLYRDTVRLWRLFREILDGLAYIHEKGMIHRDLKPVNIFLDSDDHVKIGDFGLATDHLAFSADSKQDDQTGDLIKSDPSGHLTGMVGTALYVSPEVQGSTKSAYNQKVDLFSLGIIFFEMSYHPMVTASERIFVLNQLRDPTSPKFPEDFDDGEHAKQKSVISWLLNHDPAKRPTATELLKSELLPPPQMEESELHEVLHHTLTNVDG

## CCC1(O)CC(OC2CC(N(C)C)C(OC3CC4OC5CC(=O)C(C)OC5OC4C(C)O3)C(C)O2)c2c(cc3c(c2O)C(=O)c2c(O)ccc(O)c2C3=O)C1C(=O)OC (centres unmarked) [Compound 1a, cinerubin B]
[1]; 24 h, read-out: CC50
  CC50: > 5 µM
HIV-1Laï; 24 h infection, read-out: EC50
  EC50: 0.494 µM

## CCC1(O)CC(OC2CC(N)C(O)C(C)O2)c2c(O)c3c(c(O)c2C1C(=O)OC)C(=O)c1cccc(O)c1C3=O (centres unmarked) [Compound 1b]
[1]; 24 h, read-out: CC50
  CC50: > 5 µM
[2]; [3]
  IC50: 0.917 µM

## CCC1(O)CC(OC2CC(N(C)C)C(O)C(C)O2)c2c(cc3c(c2O)C(=O)c2c(O)ccc(O)c2C3=O)C1C(=O)OC (centres unmarked) [Compound 1c]
[1]; 24 h, read-out: CC50
  CC50: 0.589 µM
[2]; [3]
  IC50: 1.4 µM

## CC(=O)[C@]1(O)Cc2c(O)c3c(c(O)c2[C@@H](O[C@H]2C[C@H](N)[C@H](O)[C@H](C)O2)C1)C(=O)c1c(O)cccc1C3=O [Compound 1d]
[1]
  CC50: 0.04 µM

## CCC1(O)CC(OC2CC(N(C)C)C(O)C(C)O2)c2c(O)c3c(c(O)c2C1OC1CC(N(C)C)C(O)C(C)O1)C(=O)c1cccc(O)c1C3=O (centres unmarked) [Compound 1e]
[1]; 24 h, read-out: CC50
  CC50: 0.724 µM
[2]
  IN-GCN2 interaction (%): 17.07%

## CCC1(O)CC(OC2CC(N(C)C)C(O)C(C)O2)c2c(cc3c(c2O)C(=O)c2c(O)cccc2C3=O)C1C(=O)OC (centres unmarked) [Compound 1f]
[1]; 24 h, read-out: CC50
  CC50: 2.35 µM
HIV-1Laï; 24 h infection, read-out: EC50
  EC50: 1.39 µM
[2]; [3]
  IC50: 3.23 µM
[2]
  IN-GCN2 interaction (%): 43.80%

## CCCCCCCC(=O)OCC(=O)C1(O)Cc2c(O)c3c(c(O)c2C(OC2CC(N)C(O)C(C)O2)C1)C(=O)c1c(OC)cccc1C3=O (centres unmarked) [Compound 1g, adriamycin octanoate]
[1]; 24 h, read-out: CC50
  CC50: 1.67 µM
HIV-1Laï; [4]
  EC50: 0.211 µM
HIV-1Laï
  SI (CC50/EC50): 7.9
HIV-1Laï; listed as NSC149584
  SI (CC50/EC50): > 10.1
[2]; [3]
  IC50: 3.95 µM and 4 µM

## COc1cccc2c1C(=O)c1c(O)c3c(c(O)c1C2=O)CC(O)(C(C)=O)CC3OC1CC(N)C(OC2CC(O)C(O)C(C)O2)C(C)O1 (centres unmarked) [Compound 1h]
[1]
  CC50 at 24 h: > 5 µM
HIV-1Laï; [4]
  EC50: 1.66 µM
HIV-1Laï
  SI (CC50/EC50): >3
[2]; [3]
  IC50: 6.5 µM

## CCOC(OCC)C(=O)OCC(=O)C1(O)Cc2c(O)c3c(c(O)c2C(OC2CC(N)C(O)C(C)O2)C1)C(=O)c1c(OC)cccc1C3=O (centres unmarked) [Compound 1i]
[1]
  CC50 at 24 h: > 5 µM
HIV-1Laï; 24 h
  EC50: > 5 µM
[2]; [3]
  IC50: 8.05 µM

## COC(=O)[C@@H]1c2cc3c(c(O)c2[C@@H](O[C@@H]2O[C@@H](C)[C@H](OC)[C@@](C)(OC)[C@H]2OC)C[C@]1(C)O)C(=O)c1c(O)cc2c(c1C3=O)O[C@@H]1O[C@@]2(C)[C@H](O)[C@@H](N(C)C)[C@@H]1O [Compound 1j]
[1]
  CC50 at 24 h: 0.311 µM
[2]; [3]
  IC50: 8.88 µM

## CC[C@@]1(O)C[C@H](O[C@H]2C[C@H](N(C)C)[C@H](O[C@H]3C[C@H](O)[C@H](O[C@H]4CCC(=O)[C@H](C)O4)[C@H](C)O3)[C@H](C)O2)c2c(cc3c(c2O)C(=O)c2c(O)cccc2C3=O)[C@H]1C(=O)OC [Compound 1k]
[1]; 24 h, read-out: CC50
  CC50: 0.114 µM
[2]
  IN-GCN2 interaction (%): 28.46%

## CCCCCCCCCCCCCCCCCC(=O)OCC(=O)OCC(=O)C1(O)Cc2c(O)c3c(c(O)c2C(OC2CC(N)C(O)C(C)O2)C1)C(=O)c1c(OC)cccc1C3=O (centres unmarked) [Compound 1m]
[1]; [5]
  CC50 at 24 h: > 5 µM
[2]; [3]
  IC50: 20.6 µM

## CCN(CC)C1CC(OC2CC(O)(C(=O)CO)Cc3c(O)c4c(c(O)c32)C(=O)c2c(OC)cccc2C4=O)OC(C)C1O (centres unmarked) [Compound 1n]
[1]; 24 h, read-out: CC50
  CC50: 0.512 µM
[2]; [3]
  IC50: 29.4 µM

## COc1cccc2c1C(=O)c1c(O)c3c(c(O)c1C2=O)CC(O)(C(C)=O)CC3OC1CC(N(C)C)C(O)C(C)O1 (centres unmarked) [Compound 1o]
[1]
  CC50 at 24 h: 0.256 µM
[2]; [3]
  IC50: 43.7 µM

## COc1cccc2c1C(=O)c1c(O)c3c(c(O)c1C2=O)CC(O)(C(C)=O)CC3OC1CC([N+](C)(C)C)C(O)C(C)O1 (centres unmarked) [Compound 1q]
[1]; 24 h, read-out: CC50
  CC50: > 5 µM
HIV-1Laï; [4]
  EC50: > 5 µM
[2]; [3]
  IC50: 75 µM

## COc1ccc2ccccc2c1/C=C/C(=O)c1ccc(OCc2ccccc2)cc1O [Compound 2a]
[1]; [5]
  CC50 at 24 h: > 5 µM
HIV-1Laï
  effect on HIV replication, in words: pro-viral
[2]; [3]
  IC50: 2.6 µM

## O=C1CC(c2ccc(O)c(-c3c(O)cc4c(c3O)C(=O)CC(c3ccc(O)cc3)O4)c2)Oc2cc(O)cc(O)c21 (centres unmarked) [Compound 2c]
[1]; [5]
  CC50 at 24 h: > 5 µM
[2]; [3]
  IC50: > 100 µM

## O=C1c2c(O)ccc(O)c2C(=O)c2c(NCCO)ccc(NCCO)c21 [Compound 2e]
[1]
  CC50 at 24 h: > 5 µM
HIV-1Laï; [4]
  EC50: > 5 µM
[2]; [3]
  IC50: 4.4 µM

## NC(CS)C(=O)NCCNc1ccc(NCCNC(=O)C(N)CS)c2c1C(=O)c1c(O)ccc(O)c1C2=O (centres unmarked) [Compound 2f]
[1]; [5]
  CC50 at 24 h: 3.48 µM
[2]; [3]
  IC50: 6.4 µM

## O=C1c2c(O)ccc(O)c2C(=O)c2c(NCCOCCO)ccc(NCCOCCO)c21 [Compound 2g]
[1]
  CC50 at 24 h: > 5 µM
HIV-1Laï; [4]
  EC50: > 5 µM
[2]; [3]
  IC50: 6.6 µM

## CC(=O)Nc1ccc(Nc2ccc(NCCO)c3c2C(=O)c2c(O)ccc(O)c2C3=O)cc1 [Compound 2h]
[1]; [5]
  CC50 at 24 h: > 5 µM
HIV-1Laï; [4]
  EC50: > 5 µM
[2]; [3]
  IC50: 10.6 µM

## O=C1c2c(O)ccc(O)c2C(=O)c2c(NCCCCO)ccc(NCCCCO)c21 [Compound 2i]
[1]; [5]
  CC50 at 24 h: > 5 µM
HIV-1Laï; [4]
  EC50: > 5 µM
[2]; [3]
  IC50: 11.2 µM

## CN(C)CCCCNc1ccc(NCCCCN(C)C)c2c1C(=O)c1c(O)ccc(O)c1C2=O [Compound 2j]
[1]; [5]
  CC50 at 24 h: > 5 µM
[2]; read-out: IC50, inhibition of IN-GCN2 interaction
  IC50: 11.4 µM

## O=C1c2c(O)ccc(O)c2C(=O)c2c(NCCCCCO)ccc(NCCCCCO)c21 [Compound 2k]
[1]; [5]
  CC50 at 24 h: > 5 µM
HIV-1Laï; [4]
  EC50: > 5 µM
[2]; [3]
  IC50: 12.2 µM

## Clc1ccc2nc3ccccc3cc2c1 [Compound 2n]
[1]; [5]
  CC50 at 24 h: > 5 µM
[2]; [3]
  IC50: > 100 µM

## COc1cc2c(cc1OC)c1c(OC)c(OC)cc3c1c1c2sc(=S)n1CC3 [Compound 3a]
[1]; [5]
  CC50 at 24 h: > 5 µM
[2]; [3]
  IC50: 24 µM

## COc1cc2c(c(OC)c1OC)CC1c3c(cc4c(c3-2)OCO4)CCN1C (centres unmarked) [Compound 3c]
[1]
  CC50 at 24 h: > 5 µM
[2]; [3]
  IC50: 54 µM
[2]; IC50 ratio
  fold decrease in activity compared to NSC785155: 10 fold

## COc1cc2c(cc1OC)-c1c3c(cc4c1C(C2)N(C)CC4)OCO3 (centres unmarked) [Compound 3g]
HIV-1Laï; dose-dependent increase (pro-viral effect)
  viral replication, maximum, relative to DMSO control: up to 150%
[2]; [3]
  IC50: 92 µM

## COc1ccc2c(c1)CC1c3c(cc4c(c3-2)OCO4)CCN1C (centres unmarked) [Compound 3h]
[1]; 24 h, read-out: CC50
  CC50: > 5 µM
[2]; [3]
  IC50: > 100 µM

## COc1ccc2c(c1OC)-c1c3c(cc4c1C(C2)N(C)CC4)OCO3 (centres unmarked) [Compound 3j]
[1]
  CC50 at 24 h: > 5 µM
[2]; [3]
  IC50: > 100 µM

## COc1cc2c(cc1OC)-c1c(OC)c(OC)cc3c1C(C2)N(C)CC3 (centres unmarked) [Compound 3k]
[1]; 24 h, read-out: CC50
  CC50: > 5 µM
[2]; [3]
  IC50: > 100 µM
[2]; dose-response assessment
  effect on IN-GCN2 interaction in dose-response, in words: inactive
[2]
  IN-GCN2 interaction (%): 124.35%

## COc1cc2c3c(c1O)C1(C=CC(=O)C=C1)CC3N(C)CC2 (centres unmarked) [Compound 3l]
[1]; [5]
  CC50 at 24 h: > 5 µM
[2]; [3]
  IC50: > 100 µM

## COc1cc2ccc3c(c2cc1OC)N(C)C(OC)c1cc2c(cc1-3)OCO2 (centres unmarked) [Compound 3m]
[1]; 24 h, read-out: CC50
  CC50: > 5 µM
[2]; [3]
  IC50: > 100 µM

## COc1cc2c3c(c1O)-c1ccccc1CC3N(C)CC2 (centres unmarked) [NSC785177]
[2]
  IN-GCN2 interaction (%): 73.43%

## COc1cc2c(cc1O)C[C@H]1c3c(c(OC)c4c(c3-2)OCO4)CCN1C [NSC785179]
[2]
  IN-GCN2 interaction (%): 39.12%

## CC[C@]12CCCN3CC[C@]4(C(=C(C(=O)OC)C1)Nc1ccccc14)[C@@H]32 [NSC785180]
[2]
  IN-GCN2 interaction (%): 67.39%

## COc1c(O)ccc2c1-c1c3c(cc4c1[C@H](C2)N(C)CC4)OCO3 [NSC785181]
[2]; listed as 785181
  IN-GCN2 interaction (%): 54.07%

## COc1c(O)ccc2c1-c1c3c(cc4c1[C@H](C2)N(C)CC4)OCO3 [NSC785182]
[2]; listed as 785182
  IN-GCN2 interaction (%): 74.81%

## COc1cc2c(cc1O)[C@@H](Cc1ccc(Oc3cc(C[C@H]4c5cc(O)c(OC)cc5CCN4C)ccc3OC)cc1)N(C)CC2 [NSC785183]
[2]
  IN-GCN2 interaction (%): 47.22%

## COc1cc2c(cc1O)[C@@H](Cc1ccc(Oc3cc(C[C@H]4c5cc(O)c(OC)cc5CCN4C)ccc3O)cc1)N(C)CC2 [NSC785184]
[2]
  IN-GCN2 interaction (%): 46.86%

## CCOc1cc2c(cc1OC)CCN[C@H]2Cc1ccc(O)cc1 [NSC785185]
[2]
  IN-GCN2 interaction (%): 75.32%

## COc1cc2c3c(c1O)-c1cc(O)ccc1CC3N(C)CC2 (centres unmarked) [NSC785186]
[2]
  IN-GCN2 interaction (%): 59.88%

## COc1ccc2c(c1OC)-c1c(OC)c(OC)cc3c1[C@H](C2)NCC3 [NSC785187]
[2]
  IN-GCN2 interaction (%): 70.21%

## COc1ccc2c(c1O)-c1c3c(cc4c1[C@H](C2)N(C)CC4)OCO3 [NSC785188]
[2]
  IN-GCN2 interaction (%): 77.54%

## COc1cc2c(cc1O)C[C@H]1c3c(cc(OC)c(OC)c3-2)CCN1C [NSC785189]
[2]
  IN-GCN2 interaction (%): 31.39%
